According to US11912693B2, “Compounds for modulating S1P1 activity and methods of using the same” (TREVENA, INC., priority 2017, dated 2024):

How the values were obtained:
[1] = molecular target: T1, human sphingosine-1-phosphate receptor 1 (S1P1) (Homo sapiens (Human), UniProt P21453); experiment: β-Arrestin2 recruitment assay (PathHunter), S1P1 CHO-K1 cells; type: cell-based; settings: for hS1P1 B-arrestin2 pEC50: β-arrestin2 recruitment, S1P1 CHO-K1 cells; for Emax: CHO-K1, efficacy (SPAN) normalized to fingolimod, read-out: hS1P1 B-arrestin2 SPAN
In short: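 Enzyme-fragment complementation read-out: agonist-driven β-arrestin2 binding to ProLink-tagged human S1P1 in stable CHO-K1 cells restores β-galactosidase, measured 1 h at room temperature after a 60 min 37° C. compound incubation. Potency as pEC50, efficacy relative to fingolimod (SPAN).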
Target sequence in this assay (P21453 whole entry, looked up, the tested form may be a part): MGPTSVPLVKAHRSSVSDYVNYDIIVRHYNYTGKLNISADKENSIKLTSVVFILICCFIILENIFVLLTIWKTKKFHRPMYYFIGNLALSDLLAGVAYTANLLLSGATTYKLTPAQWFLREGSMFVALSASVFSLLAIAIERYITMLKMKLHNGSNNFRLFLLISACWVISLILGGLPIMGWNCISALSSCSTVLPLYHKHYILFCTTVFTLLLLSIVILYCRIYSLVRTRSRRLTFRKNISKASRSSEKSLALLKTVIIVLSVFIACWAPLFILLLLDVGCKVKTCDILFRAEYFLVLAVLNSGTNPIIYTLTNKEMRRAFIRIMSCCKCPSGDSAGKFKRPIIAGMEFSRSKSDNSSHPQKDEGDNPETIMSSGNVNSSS
Target sequence in this assay (P32121 whole entry partner, looked up, the tested form may be a part): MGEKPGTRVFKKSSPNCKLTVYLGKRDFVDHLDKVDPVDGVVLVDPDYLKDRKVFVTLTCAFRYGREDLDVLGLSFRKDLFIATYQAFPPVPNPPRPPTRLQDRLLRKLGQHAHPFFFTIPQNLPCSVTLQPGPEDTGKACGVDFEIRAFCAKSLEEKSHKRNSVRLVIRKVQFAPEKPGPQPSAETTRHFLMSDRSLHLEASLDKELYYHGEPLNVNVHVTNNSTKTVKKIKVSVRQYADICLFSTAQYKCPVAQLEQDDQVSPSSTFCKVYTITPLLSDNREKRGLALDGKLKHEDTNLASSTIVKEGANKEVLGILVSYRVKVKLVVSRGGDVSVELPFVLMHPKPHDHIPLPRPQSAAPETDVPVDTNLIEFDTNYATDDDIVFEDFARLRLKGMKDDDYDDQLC

[2] = test system: paclitaxel induced peripheral neuropathy; experiment: Reversal of allodynia induced by paclitaxel in mice (s.c. or p.o., von Frey frequency method); type: in vivo, c57bl/6 mice; settings: Mus musculus; for inhibition in vivo at 3 mg/kg: po, 1 h, 3 mg/kg p.o., tested 60 min after dosing, read-out: Screen @ 3 mg/kg po (% MPE); for inhibition in vivo at 1 mg/kg: sc, 0.5 h, 1 mg/kg s.c., tested 30 min after dosing, read-out: Screen @ 1 mg/kg sc (% MPE)
Experimental: Compounds were tested for efficacy in mouse models of chemotherapy induced peripheral neuropathy. […] For these studies […]/6 mice are habituated to the test environment and baseline measurements of pain sensitivity are assessed. To determine mechanical responses, the threshold for responses to punctate mechanical stimuli (mechanical hyperalgesia) was tested according to the frequency method. In brief, the plantar surface of the animal hindpaw was stimulated with a single von Frey monofilament (0.4 g) for approximately 1-2 seconds. If there was a withdrawal response, it was recorded as a positive response. A response was defined as a lifting or shaking of the paw upon stimulation. This was repeated ten times for each mouse. The final measurement for each mouse is the % non-response to stimulation for the ten trials. The % non-response to stimulation is converted to a % MPE. For paclitaxel induced peripheral neuropathy, a series of injections of PAC (6 mg/kg, i.p.) on days 1, 3, 5 and 7 is used to induce peripheral neuropathy. After approximately 14 days from the initiation of PAC injections, animals are re-assessed for mechanical sensitivity. […] On test day animals are dosed with compounds either subcutaneously or orally and tested for mechanical response by the frequency method either 30 min (s.c.) or 60 min (p.o.) after drug administration. Data is presented as a % MPE. For oxaliplatin induced peripheral neuropathy, a series of injections of OXA (4 mg/kg, i.p.) on days 1-5 is used to induce peripheral neuropathy. After approximately 14 days from the initiation of PAC injections, animals are re-assessed for mechanical sensitivity. […] On test day animals are dosed with compounds subcutaneously and tested for mechanical response by the frequency method 30 min after drug administration. Data is presented as a % MPE. One or more of the compounds show reversal of chemotherapeutic induced peripheral neuropathy.

[3] = molecular target: T1, human sphingosine-1-phosphate receptor 1 (S1P1); experiment: Inhibition of cAMP production (HTRF cAMP HiRange), S1P1 CHO-K1 cells; type: cell-based; settings: for hS1P1 cAMP pEC50: inhibition of cAMP production, S1P1 CHO-K1 cells; for Emax: CHO-K1, efficacy (SPAN) normalized to fingolimod, read-out: hS1P1 cAMP SPAN
In short: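 CHO-K1 cells stably co-expressing human S1P1 (C-terminal Prolink tag) and EA-β-arrestin2 were grown in AssayComplete Media 6 at 37° C. and 5% CO2, plated, and incubated overnight. Agonist-driven inhibition of intracellular cAMP was read by TR-FRET with the HTRF cAMP HiRange kit on a PheraStar reader. Potency is pEC50, and efficacy (SPAN) is normalized to fingolimod.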
Target sequence in this assay (P21453 whole entry, looked up, the tested form may be a part): as the sequence (P21453 whole entry, looked up, the tested form may be a part) above

| Structure (SMILES) | hS1P1 B-arrestin2 pEC50 [1] | inhibition in vivo at 3 mg/kg [2] | hS1P1 cAMP pEC50 [3] | Emax [1] | Emax [3] | inhibition in vivo at 1 mg/kg [2] |
| --- | --- | --- | --- | --- | --- | --- |
| CCC1(CC)CC(=O)c2cc(-c3nc(-c4ccc5c(c4)CCC(=O)N5)no3)ccc2O1 [Compound 415, 6-(5-(2,2-diethyl-4-oxochroman-6-yl)-1,2,4-oxadiazol-3-yl)-3,4-dihydroquinolin-2(1H)-one] | <5 | < 50% | >6.5 | – | – | – |
| N#Cc1cc(-c2nnc(-c3ccc4[nH]cnc4c3)o2)ccc1NCCF [Compound 358, 5-[5-(1H-1,3-benzodiazol-5-yl)-1,3,4-oxadiazol-2-yl]-2-[(2-fluoroethyl)amino]benzonitrile] | >5 | > 50% | >6.5 | > 75% | > 75% | – |
| N#Cc1cc(-c2nnc(-c3ccc4[nH]cnc4c3)o2)ccc1NC1CC1 [Compound 598, 5-[5-(1H-1,3-benzodiazol-5-yl)-1,3,4-oxadiazol-2-yl]-2-(cyclopropylamino) benzonitrile] | >5 | < 50% | >6.5 | > 75% | > 75% | – |
| C=CCNc1ccc(-c2nc(-c3ccc4c(c3)CC(=O)N4)no2)cc1C#N [Compound 224, 2-(allylamino)-5-(3-(2-oxoindolin-5-yl)-1,2,4-oxadiazol-5-yl)benzonitrile] | >5 | – | >6.5 | > 75% | > 75% | > 50% |
| N#Cc1cc(-c2nnc(-c3ccc4[nH]ncc4c3)o2)ccc1NCC(F)F [Compound 354, 2-[(2,2-difluoroethyl)amino]-5-[5-(1H-indazol-5-yl)-1,3,4-oxadiazol-2-yl]benzonitrile] | >5 | > 50% | >6.5 | > 75% | > 75% | – |
| Cc1ccccc1-c1noc(-c2ccc3c(c2)nnn3C2CCC2)n1 [Compound 306, 1-cyclobutyl-5-[3-(2-methylphenyl)-1,2,4-oxadiazol-5-yl]-1H-1,2,3-benzotriazole] | >5 | – | >6.5 | – | – | < 50% |
| CC(C)Nc1ccc(-c2nc(-c3ccc4c(c3)CC(=O)N4)no2)cc1C#N [Compound 107, 2-(isopropylamino)-5-(3-(2-oxoindolin-5-yl)-1,2,4-oxadiazol-5-yl)benzonitrile] | >5 | – | >6.5 | > 75% | > 75% | < 50% |
| N#Cc1cc(-c2nc(-c3ccc4c(c3)CCC(=O)N4)no2)ccc1NCC(F)(F)F [Compound 472, 5-[3-(2-oxo-1,2,3,4-tetrahydroquinolin-6-yl)-1,2,4-oxadiazol-5-yl]-2-[(2,2,2-trifluoroethyl)amino]benzonitrile] | >5 | > 50% | >6.5 | – | – | – |
| CCC1(CC)CC(=O)c2cc(-c3nc(-c4ccc(C(N)=O)cc4)no3)ccc2O1 [Compound 179, 4-(5-(2,2-diethyl-4-oxochroman-6-yl)-1,2,4-oxadiazol-3-yl)benzamide] | >5 | > 50% | >6.5 | > 75% | > 75% | > 50% |
| N#Cc1cc(-c2nc(-c3ccc4[nH]c(=O)[nH]c4c3)no2)ccc1NCC1CC1 [Compound 729, 2-((cyclopropylmethyl)amino)-5-(3-(2-oxo-2,3-dihydro-1H-benzo[d]imidazol-5-yl)-1,2,4-oxadiazol-5-yl)benzonitrile] | – | > 50% | – | – | – | – |
| N#Cc1cc(-c2nnc(-c3ccc4cnccc4c3)o2)ccc1NCC(F)F [Compound 733, 2-[(2,2-difluoroethyl)amino]-5-[5-(isoquinolin-6-yl)-1,3,4-oxadiazol-2-yl]benzonitrile] | – | > 50% | – | – | – | – |
| CC(C)Nc1ccc(-c2nnc(-c3ccc4ncccc4c3)o2)cc1C#N [Compound 736, 2-[(propan-2-yl)amino]-5-[5-(quinolin-6-yl)-1,3,4-oxadiazol-2-yl]benzonitrile] | – | > 50% | – | – | – | – |
